Laboratory results reported in US20120190546A1, “HERBICIDAL COMPOSITION AND METHOD OF USE THEREOF” (SYNGENTA CROP PROTECTION LLC, priority 2007, published 2012).

How the values were obtained:
white clover = experiment: Glasshouse trial: control of white clover with mesotrione and oxadiazon applied pre-emergence; type: in vivo, Trifolium repens; design: key to Synergy (actual vs expected), Plus Mesotrione at 25 g ai/ha / Synergy (actual vs expected), Plus Mesotrione at 50 g ai/ha: ‘n’indicates no synergy observed; *indicates synergy
Description: (§1) In the following tests, herbicides were applied at reduced field rates because herbicide effects are magnified in a glasshouse environment. The rates tested were selected to give between about 50 and 70% control with herbicides applied alone, so that any synergistic effect could be readily detected when testing mixtures.
(§2) A glasshouse trial was carried out. White clover seeds were sown into standard glasshouse potting mix (1:1 v/v Promix:Vero sand soil) contained in 10 cm square plastic pots. Treatments were replicated three times. Mesotrione (in the form Callisto® 480SE) was applied post-emergence to white clover (Trifolium repens) at either 100 g ai/ha or 150 g ai/ha with or without oxadiazon (in the form Ronstar®). When used, oxadiazon was applied at a rate of 210 g ai/ha or 420 g ai/ha. The adjuvant system was X-77 at 0.1% v/v in deionised water. 200 litres of herbicide/adjuvant system was used per hectare. General weed control was evaluated at 7 and 14 days after treatment (DAT). It is noted that all herbicides were applied at reduced field rates because herbicide effects are magnified in a glasshouse environment. Rates were chosen to give a 50 to 70% level of control with herbicides applied alone as this allows for detection of any synergistic effect when tank mixtures are used.
(§3) The results were evaluated using the Colby formula. The expected result for (A+B) is (A+B)−(AxB/100) where A and B are the ‘observed’ results for A and B on their own.
A glasshouse trial was carried out as described in Example 1, except that the herbicidal composition was applied pre-emergence, and lower rates of mesotrione were used as indicated below.

[1] = test system: white clover (Trifolium repens); experiment: Glasshouse trial: control of white clover with mesotrione and oxadiazon applied post-emergence; type: in vivo; design: key to Synergy (actual vs expected), Plus Mesotrione at 100 g ai/ha / Synergy (actual vs expected), Plus Mesotrione at 150 g ai/ha: ‘n’indicates no synergy observed; *indicates synergy; details: for Synergy (actual vs expected), Plus Mesotrione at 100 g ai/ha / Synergy (actual vs expected), Plus Mesotrione at 150 g ai/ha: Student-Newman-Keuls test; for Actual weed control, Plus Mesotrione at 100 g ai/ha / Actual weed control, Plus Mesotrione at 150 g ai/ha: X-77 0.1% v/v, evaluated 7 and 14 DAT (not said which)
Description: as §1, §2, §3

[2] = oxadiazon 210 g ai/ha + mesotrione 25 g ai/ha
[3] = oxadiazon 210 g ai/ha + mesotrione 50 g ai/ha
[4] = oxadiazon 420 g ai/ha + mesotrione 25 g ai/ha
[5] = oxadiazon 420 g ai/ha + mesotrione 50 g ai/ha
[6] = oxadiazon 210 g ai/ha + mesotrione 100 g ai/ha
[7] = oxadiazon 210 g ai/ha + mesotrione 150 g ai/ha
[8] = oxadiazon 420 g ai/ha + mesotrione 100 g ai/ha
[9] = oxadiazon 420 g ai/ha + mesotrione 150 g ai/ha

**Q.** Which “Actual weed control, Plus Mesotrione at 25 g ai/ha” value (white clover; [2]) does the source give for “5-tert-butyl-3-(2,4-dichloro-5-isopropoxyphenyl)-1,3,4-oxadiazol-2(3M-one [Oxadiazon]” here?
**A.** Its value is 100%.

**Q.** And the “Expected weed control (Colby formula), Plus Mesotrione at 25 g ai/ha” value (white clover; [2])?
**A.** Its value is 77%.

**Q.** And the “Synergy (actual vs expected), Plus Mesotrione at 25 g ai/ha” value (white clover; [2])?
**A.** Its value is “*”.

**Q.** And the “Actual weed control, Plus Mesotrione at 50 g ai/ha” value (white clover; [3])?
**A.** Its value is 98%.

**Q.** What about the “Expected weed control (Colby formula), Plus Mesotrione at 50 g ai/ha” value (white clover; [3]) of the same substance?
**A.** Its value is 83%.

**Q.** And the “Synergy (actual vs expected), Plus Mesotrione at 50 g ai/ha” value (white clover; [3])?
**A.** The value was “*”.

**Q.** And the “Actual weed control, Plus Mesotrione at 25 g ai/ha” value (white clover; [4])?
**A.** Its value is 97%.

**Q.** And the “Expected weed control (Colby formula), Plus Mesotrione at 25 g ai/ha” value (white clover; [4])?
**A.** The value was 96%.

**Q.** What about the “Synergy (actual vs expected), Plus Mesotrione at 25 g ai/ha” value (white clover; [4]) of the same substance?
**A.** The value was “*”.

**Q.** What about the “Actual weed control, Plus Mesotrione at 50 g ai/ha” value (white clover; [5]) of the same substance?
**A.** The value was 100%.

**Q.** What about the “Expected weed control (Colby formula), Plus Mesotrione at 50 g ai/ha” value (white clover; [5]) of the same substance?
**A.** Its value is 97%.

**Q.** And the “Synergy (actual vs expected), Plus Mesotrione at 50 g ai/ha” value (white clover; [5])?
**A.** Its value is “*”.

**Q.** What about the “Expected weed control (Colby formula), Plus Mesotrione at 100 g ai/ha” value [1, 6] of the same substance?
**A.** Its value is 48%.

**Q.** And the “Synergy (actual vs expected), Plus Mesotrione at 100 g ai/ha” value [1, 6]?
**A.** Its value is “n”.

**Q.** What about the “Actual weed control, Plus Mesotrione at 100 g ai/ha” value [1, 6] of the same substance?
**A.** The value was 48%.

**Q.** And the “Expected weed control (Colby formula), Plus Mesotrione at 150 g ai/ha” value [1, 7]?
**A.** Its value is 68%.

**Q.** What about the “Synergy (actual vs expected), Plus Mesotrione at 150 g ai/ha” value [1, 7] of the same substance?
**A.** Its value is “*”.

**Q.** What about the “Actual weed control, Plus Mesotrione at 150 g ai/ha” value [1, 7] of the same substance?
**A.** Its value is 77%.

**Q.** What about the “Expected weed control (Colby formula), Plus Mesotrione at 100 g ai/ha” value [1, 8] of the same substance?
**A.** The value was 49%.

**Q.** What about the “Synergy (actual vs expected), Plus Mesotrione at 100 g ai/ha” value [1, 8] of the same substance?
**A.** The value was “*”.

**Q.** And the “Actual weed control, Plus Mesotrione at 100 g ai/ha” value [1, 8]?
**A.** The value was 75%.

**Q.** And the “Expected weed control (Colby formula), Plus Mesotrione at 150 g ai/ha” value [1, 9]?
**A.** Its value is 69%.

**Q.** And the “Synergy (actual vs expected), Plus Mesotrione at 150 g ai/ha” value [1, 9]?
**A.** The value was “*”.

**Q.** And the “Actual weed control, Plus Mesotrione at 150 g ai/ha” value [1, 9]?
**A.** The value was 77%.
